Test results: US20140005163A1 (NOVARTIS AG, priority 2010, published 2014)
≈ marks a conversion by molar mass, not a printed value.

Key:
PI3K alpha = molecular target: T1, PI3K alpha (Homo sapiens, UniProt P42336); assay: PI3K alpha kinase assay (Kinase-Glo luminescence); type: biochemical
T1 construct: p85(iSH2) fusion partner (see partner chain) (N); His tag (C); made in house; host or cells: baculovirus; Tn5 (Trichoplusia ni) or TiniPro insect cells
In short: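 Luminescent ATP-depletion assay (Kinase-Glo) with 10 nM PI3Kα and 10 μg/mL phosphatidylinositol as lipid substrate at 1 μM ATP. Incubation lasts 60 min at room temperature.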

mTOR = molecular target: T2, mTOR (Homo sapiens, UniProt P42345); assay: Biochemical assay for m-TOR by TR-FRET; conditions: 8 μM ATP, 400 nM GFP-4EBP1, 0.5 nM mTOR
T2 construct: purchased Invitrogen Corporation (Carlsbad/CA, USA) PV4753
T2 sequence (P42345 1360-2549 limits assumed): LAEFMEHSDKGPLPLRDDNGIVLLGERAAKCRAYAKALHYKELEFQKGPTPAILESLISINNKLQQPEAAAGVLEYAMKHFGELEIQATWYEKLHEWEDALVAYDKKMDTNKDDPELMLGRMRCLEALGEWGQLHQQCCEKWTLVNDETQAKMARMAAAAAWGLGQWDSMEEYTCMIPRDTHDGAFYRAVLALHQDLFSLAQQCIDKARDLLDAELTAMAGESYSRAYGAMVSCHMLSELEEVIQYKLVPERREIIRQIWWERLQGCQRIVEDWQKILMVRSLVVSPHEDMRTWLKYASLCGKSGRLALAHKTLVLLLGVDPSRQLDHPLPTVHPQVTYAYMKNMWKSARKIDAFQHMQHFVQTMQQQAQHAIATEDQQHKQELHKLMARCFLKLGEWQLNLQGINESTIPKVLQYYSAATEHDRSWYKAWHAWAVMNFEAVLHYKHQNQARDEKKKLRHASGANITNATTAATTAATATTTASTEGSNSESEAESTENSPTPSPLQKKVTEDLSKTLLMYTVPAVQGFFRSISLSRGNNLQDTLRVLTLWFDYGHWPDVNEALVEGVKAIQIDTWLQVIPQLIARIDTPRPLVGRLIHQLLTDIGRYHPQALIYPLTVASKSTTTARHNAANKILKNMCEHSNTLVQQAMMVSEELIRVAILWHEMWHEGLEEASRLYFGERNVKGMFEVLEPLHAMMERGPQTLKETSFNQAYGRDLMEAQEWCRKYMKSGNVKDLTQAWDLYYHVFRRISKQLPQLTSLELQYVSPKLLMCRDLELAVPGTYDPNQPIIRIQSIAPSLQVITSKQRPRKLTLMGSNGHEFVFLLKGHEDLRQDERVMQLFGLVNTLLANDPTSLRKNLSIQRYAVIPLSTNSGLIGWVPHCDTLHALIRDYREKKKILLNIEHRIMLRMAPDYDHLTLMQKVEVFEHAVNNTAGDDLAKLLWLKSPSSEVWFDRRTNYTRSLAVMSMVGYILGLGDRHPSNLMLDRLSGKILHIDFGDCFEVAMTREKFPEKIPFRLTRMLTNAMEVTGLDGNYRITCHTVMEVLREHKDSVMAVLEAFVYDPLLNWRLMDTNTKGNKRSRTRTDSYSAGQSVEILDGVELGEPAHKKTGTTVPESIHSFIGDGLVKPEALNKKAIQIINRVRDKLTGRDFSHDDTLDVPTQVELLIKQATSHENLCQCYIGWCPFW
In short: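 TR-FRET detection of pThr46 on GFP-4EBP1 (400 nM final) using Tb3+-labelled antibody (0.5 nM), added with EDTA to stop reactions. Reactions ran at rt with 0.5 nM mTOR and 8 μM ATP (final) in HEPES pH 7.5 buffer containing 10 mM MnCl2.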

PI3K gamma = molecular target: T3, PI3K gamma (Homo sapiens, UniProt P48736); assay: PI3K gamma kinase assay (Kinase-Glo luminescence); type: biochemical
T3 construct: His tag (C); made in house; host or cells: baculovirus (pVL1393); Tn5 or TiniPro insect cells; construct from Roger Williams lab, MRC LMB
T3 sequence (P48736 144-1102 limits assumed): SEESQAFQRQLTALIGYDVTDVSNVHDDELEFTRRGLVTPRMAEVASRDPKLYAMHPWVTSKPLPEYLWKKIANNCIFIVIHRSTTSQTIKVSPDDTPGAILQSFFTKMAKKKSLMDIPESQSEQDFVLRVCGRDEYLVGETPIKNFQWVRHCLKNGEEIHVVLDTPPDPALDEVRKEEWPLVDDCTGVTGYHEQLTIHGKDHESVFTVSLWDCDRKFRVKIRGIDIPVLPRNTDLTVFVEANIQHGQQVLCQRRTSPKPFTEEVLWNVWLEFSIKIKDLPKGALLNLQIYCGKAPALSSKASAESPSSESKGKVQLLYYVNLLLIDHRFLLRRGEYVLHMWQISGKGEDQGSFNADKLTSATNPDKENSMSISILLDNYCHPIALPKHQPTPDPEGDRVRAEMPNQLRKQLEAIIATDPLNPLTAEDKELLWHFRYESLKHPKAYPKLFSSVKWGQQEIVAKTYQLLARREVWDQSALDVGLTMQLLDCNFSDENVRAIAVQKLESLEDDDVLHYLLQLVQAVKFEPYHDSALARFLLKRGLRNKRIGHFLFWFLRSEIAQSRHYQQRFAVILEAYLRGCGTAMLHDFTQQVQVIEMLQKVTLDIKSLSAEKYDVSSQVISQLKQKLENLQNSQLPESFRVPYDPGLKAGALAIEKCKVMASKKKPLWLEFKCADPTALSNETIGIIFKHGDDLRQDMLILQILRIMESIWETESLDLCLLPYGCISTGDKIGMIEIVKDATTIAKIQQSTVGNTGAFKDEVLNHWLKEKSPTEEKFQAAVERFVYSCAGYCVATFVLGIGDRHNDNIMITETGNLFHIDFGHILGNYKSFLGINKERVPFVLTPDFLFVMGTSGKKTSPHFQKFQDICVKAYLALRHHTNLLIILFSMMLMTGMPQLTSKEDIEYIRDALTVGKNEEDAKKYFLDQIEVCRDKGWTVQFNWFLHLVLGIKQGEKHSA
In short: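 PI3Kγ (150 nM) reaction run 120 min at room temperature with phosphatidylinositol substrate (10 μg/mL) and ATP (1 μM) in Tris pH 7.5 buffer containing MgCl2, NaCl, CHAPS and DTT. Remaining ATP detected by Kinase-Glo luminescence; 8 concentrations per compound, IC50 from 4-parameter curve fitting.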

Solubility at pH 6.8 = type: physicochemical; conditions: pH 6.8, aqueous buffer, thermodynamic from solid; read-out: solubility
In short: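 Following the procedure of Zhou et al. (2007), compound solubility was determined at pH 6.8.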

T1 sequence (P42336 with tags, fused parts or gaps limits assumed): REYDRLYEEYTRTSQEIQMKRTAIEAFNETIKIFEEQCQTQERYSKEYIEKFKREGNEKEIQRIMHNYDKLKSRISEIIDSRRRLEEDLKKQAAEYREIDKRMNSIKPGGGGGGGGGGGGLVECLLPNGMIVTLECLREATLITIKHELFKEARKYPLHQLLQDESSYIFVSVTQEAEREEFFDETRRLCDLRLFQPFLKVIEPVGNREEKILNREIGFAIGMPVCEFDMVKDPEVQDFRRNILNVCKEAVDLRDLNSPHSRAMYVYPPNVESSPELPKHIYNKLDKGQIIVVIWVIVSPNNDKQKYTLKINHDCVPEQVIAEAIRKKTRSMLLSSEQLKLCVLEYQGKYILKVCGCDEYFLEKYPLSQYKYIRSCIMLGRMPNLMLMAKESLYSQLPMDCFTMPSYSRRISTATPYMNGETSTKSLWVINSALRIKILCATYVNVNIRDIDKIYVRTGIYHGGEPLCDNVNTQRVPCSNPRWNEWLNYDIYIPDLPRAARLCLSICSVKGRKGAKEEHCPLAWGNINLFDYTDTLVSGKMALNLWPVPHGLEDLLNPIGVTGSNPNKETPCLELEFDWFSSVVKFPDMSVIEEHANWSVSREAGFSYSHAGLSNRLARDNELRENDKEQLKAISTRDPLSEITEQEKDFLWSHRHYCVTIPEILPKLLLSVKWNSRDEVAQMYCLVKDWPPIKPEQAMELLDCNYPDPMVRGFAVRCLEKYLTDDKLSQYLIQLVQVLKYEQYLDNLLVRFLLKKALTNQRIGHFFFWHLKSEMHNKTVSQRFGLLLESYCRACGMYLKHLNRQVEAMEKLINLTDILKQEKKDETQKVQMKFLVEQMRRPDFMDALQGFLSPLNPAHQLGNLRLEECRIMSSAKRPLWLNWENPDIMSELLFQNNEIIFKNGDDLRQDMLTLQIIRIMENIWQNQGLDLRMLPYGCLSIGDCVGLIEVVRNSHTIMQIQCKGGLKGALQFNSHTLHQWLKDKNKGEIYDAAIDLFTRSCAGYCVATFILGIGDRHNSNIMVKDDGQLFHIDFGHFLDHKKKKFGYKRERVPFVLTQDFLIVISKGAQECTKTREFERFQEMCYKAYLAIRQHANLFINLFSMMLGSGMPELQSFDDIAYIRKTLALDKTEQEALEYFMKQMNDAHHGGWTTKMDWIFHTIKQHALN

| Compound | IC50 (PI3K alpha) [nM] | IC50 (mTOR) [nM] | IC50 (PI3K gamma) [nM] | solubility (Solubility at pH 6.8) [µg/mL] |
| --- | --- | --- | --- | --- |
| COc1ccc(-c2ccc3ncc4c(c3c2)n(-c2cnn(C)c2C)c(=O)n4C)cn1 [Example 2.9, 1-(1,5-Dimethyl-1H-pyrazol-4-yl)-8-(6-methoxy-pyridin-3-yl)-3-methyl-1,3-dihydro-imidazo[4,5-c]quinolin-2-one] | 43 | 151 | 206 |  |
| Cc1c(-n2c(=O)n(C)c3cnc4ccc(-c5ccc(N(C)C)nc5)cc4c32)cnn1C [Example 4.4, 8-(6-Dimethylamino-pyridin-3-yl)-1-(1,5-dimethyl-1H-pyrazol-4-yl)-3-methyl-1,3-dihydro-imidazo[4,5-c]quinolin-2-one] | 45 | 100 | 341 |  |
| Cc1nn(C(C)C)cc1-n1c(=O)n(C)c2cnc3ccc(-c4cnc(N(C)C)nc4)cc3c21 [Example 6.1, 8-(2-Dimethylamino-pyrimidin-5-yl)-1-(1-isopropyl-3-methyl-1H-pyrazol-4-yl)-3-methyl-1,3-dihydro-imidazo[4,5-c]quinolin-2-one] | 29 | 30 | 182 |  |
| CCn1cc(-n2c(=O)n(C)c3cnc4ccc(-c5ccc(CO)nc5)cc4c32)c(C)n1 [Example 16.1, 1-(1-ethyl-3-methyl-1H-pyrazol-4-yl)-8-(6-hydroxymethyl-pyridin-3-yl)-3-methyl-1,3-dihydro-imidazo[4,5-c]quinolin-2-one] | 33 | 34 | 415 | 75 (≈ 181 µM) |
| Cc1nn(C)cc1-n1c(=O)n(C)c2cnc3ccc(-c4cncnc4)cc3c21 [Example 26, 1-(1,3-Dimethyl-1H-pyrazol-4-yl)-3-methyl-8-pyrimidin-5-yl-1,3-dihydro-imidazo[4,5-c]quinolin-2-one] | 103 | 112 | 777 | 242 (≈ 652 µM) |
| Cc1nn(C)cc1-n1c(=O)n(C)c2cnc3ccc(-c4ccc(OCC5CC5)nc4)cc3c21 [Example 42, 8-(6-Cyclopropylmethoxy-pyridin-3-yl)-1-(1,3-dimethyl-1H-pyrazol-4-yl)-3-methyl-1,3-dihydro-imidazo[4,5-c]quinolin-2-one] | 70 | 65 | 590 |  |
| Cc1nn(C)cc1-n1c(=O)n(C)c2cnc3ccc(-c4ccc5c(c4)CCN5C)cc3c21 [Example 50, 1-(1,3-Dimethyl-1H-pyrazol-4-yl)-3-methyl-8-(1-methyl-2,3-dihydro-1H-indol-5-yl)-1,3-dihydro-imidazo[4,5-c]quinolin-2-one] | 188 | 157 | 334 |  |
| CCCOc1ccc(-c2ccc3ncc4c(c3c2)n(-c2cn(C)nc2C)c(=O)n4C)cn1 [Example 55, 1-(1,3-Dimethyl-1H-pyrazol-4-yl)-3-methyl-8-(6-propoxy-pyridin-3-yl)-1,3-dihydro-imidazo[4,5-c]quinolin-2-one] | 56 | 25 | 343 | 3 (≈ 7 µM) |
| CCOc1cccc(-c2ccc3ncc4c(c3c2)n(-c2cn(C)nc2C)c(=O)n4C)c1 [Example 57, 1-(1,3-Dimethyl-1H-pyrazol-4-yl)-8-(3-ethoxy-phenyl)-3-methyl-1,3-dihydro-imidazo[4,5-c]quinolin-2-one] | 38 | 322 | 197 |  |
| Cc1nn(C(C)C)cc1-n1c(=O)n(C)c2cnc3ccc(-c4ccc(C(N)=O)nc4)cc3c21 [Example 112, 5-[1-(1-Isopropyl-3-methyl-1H-pyrazol-4-yl)-3-methyl-2-oxo-2,3-dihydro-1H-imidazo[4,5-c]quinolin-8-yl]-pyridine-2-carboxylic acid amide] | 79 | 20 | 471 |  |
| Cc1nn(C)cc1-n1c(=O)n(C)c2cnc3ccc(-c4cnc(CO)c(Cl)c4)cc3c21 [Example 238, 8-(5-Chloro-6-hydroxymethyl-pyridin-3-yl)-1-(1,3-dimethyl-1H-pyrazol-4-yl)-3-methyl-1,3-dihydro-imidazo[4,5-c]quinolin-2-one] | 29 | 174 |  | 8 (≈ 18.4 µM) |
| C=CCn1c(=O)n(-c2cn(C)nc2C)c2c3cc(-c4cncc(N)c4)ccc3ncc21 [Example 246, 3-Allyl-8-(5-amino-pyridin-3-yl)-1-(1,3-dimethyl-1H-pyrazol-4-yl)-1,3-dihydro-imidazo[4,5-c]quinolin-2-one] | 28 | 147 |  | 75 (≈ 182 µM) |
| CCN(CC)C(=O)Cn1cc(-n2c(=O)n(C)c3cnc4ccc(-c5cnc(N6CCCC6)nc5)cc4c32)c(C)n1 [Example 247.1, N,N-Diethyl-2-{3-methyl-4-[3-methyl-2-oxo-8-(2-pyrrolidin-1-yl-pyrimidin-5-yl)-2,3-dihydro-imidazo[4,5-c]quinolin-1-yl]-pyrazol-1-yl}-acetamide] | 93 | 13 |  | 69 (≈ 128 µM) |

Other lines, results leading:

| IC50 (PI3K alpha) [nM] | IC50 (mTOR) [nM] | IC50 (PI3K gamma) [nM] | solubility (Solubility at pH 6.8) [µg/mL] | Compound |
| --- | --- | --- | --- | --- |
| 28 | 308 | 100 | 315 (≈ 710 µM) | COc1ccc(-c2ccc3ncc4c(c3c2)n(-c2c(C)nn(C)c2C)c(=O)n4C)cc1OC [Example 1.9, 8-(3,4-Dimethoxy-phenyl)-3-methyl-1-(1,3,5-trimethyl-1H-pyrazol-4-yl)-1,3-dihydro-imidazo[4,5-c]quinolin-2-one] |
| 16 | 9 | 529 |  | CCOc1ccc(-c2ccc3ncc4c(c3c2)n(-c2cn(C)nc2Cl)c(=O)n4C)cn1 [Example 3.8, 1-(3-Chloro-1-methyl-1H-pyrazol-4-yl)-8-(6-ethoxy-pyridin-3-yl)-3-methyl-1,3-dihydro-imidazo[4,5-c]quinolin-2-one] |
| 16 | 48 | 129 | 42 (≈ 113 µM) | Cc1nn(C)cc1-n1c(=O)n(C)c2cnc3ccc(-c4cccnc4)cc3c21 [Example 10.2, 1-(1,3-Dimethyl-1H-pyrazol-4-yl)-3-methyl-8-pyridin-3-yl-1,3-dihydro-imidazo[4,5-c]quinolin-2-one] |
| 6 | 121 | 73 |  | Cc1nn(C)cc1-n1c(=O)n(C)c2cnc3ccc(-c4cncc(S(C)(=O)=O)c4)cc3c21 [Example 22, 1-(1,3-Dimethyl-1H-pyrazol-4-yl)-8-(5-methanesulfonyl-pyridin-3-yl)-3-methyl-1,3-dihydro-imidazo[4,5-c]quinolin-2-one] |
| 7 | 133 | 82 |  | Cc1nn(C)cc1-n1c(=O)n(C)c2cnc3ccc(-c4cc(O)cc(C(F)(F)F)c4)cc3c21 [Example 34, 1-(1,3-Dimethyl-1H-pyrazol-4-yl)-8-(3-hydroxy-5-trifluoromethyl-phenyl)-3-methyl-1,3-dihydro-imidazo[4,5-c]quinolin-2-one] |
| 9 | < 3 | 118 |  | Cc1nn(C)cc1-n1c(=O)n(C)c2cnc3ccc(-c4cnc5[nH]ccc5c4)cc3c21 [Example 36, 1-(1,3-dimethyl-1H-pyrazol-4-yl)-3-methyl-8-(1H-pyrrolo[2,3-b]pyridin-5-yl)-1,3-dihydro-imidazo[4,5-c]quinolin-2-one] |
| 8 | 4 | 114 |  | CNC(=O)c1ccc(-c2ccc3ncc4c(c3c2)n(-c2cn(C)nc2Cl)c(=O)n4C)cc1 [Example 43.2, 4-[1-(3-Chloro-1-methyl-1H-pyrazol-4-yl)-3-methyl-2-oxo-2,3-dihydro-1H-imidazol[4,5-c]quinolin-8-yl]-N-methyl-benzamide] |
| 6 | 13 |  | 3 (≈ 6.75 µM) | COc1cc(-c2ccc3ncc4c(c3c2)n(-c2cn(CCO)nc2C)c(=O)n4C)cnc1C [Example 211.1, 1-[1-(2-Hydroxy-ethyl)-3-methyl-1H-pyrazol-4-yl]-8-(5-methoxy-6-methyl-pyridin-3-yl)-3-methyl-1,3-dihydro-imidazo[4,5-c]quinolin-2-one] |
| 15 | 17 |  | 13 (≈ 28.3 µM) | COc1ncc(-c2ccc3ncc4c(c3c2)n(-c2cn(C(C)C)nc2C)c(=O)n4C)c(OC)n1 [Example 234.3, 8-(2,4-Dimethoxy-pyrimidin-5-yl)-1-(1-isopropyl-3-methyl-1H-pyrazol-4-yl)-3-methyl-1,3-dihydro-imidazo[4,5-c]quinolin-2-one] |
| 6 | 79 |  | 4 (≈ 8.76 µM) | CCOC(C)(C)c1cncc(-c2ccc3ncc4c(c3c2)n(-c2cn(C)nc2C)c(=O)n4C)c1 [Example 240, 1-(1,3-Dimethyl-1H-pyrazol-4-yl)-8-[5-(1-ethoxy-1-methyl-ethyl)-pyridin-3-yl]-3-methyl-1,3-dihydro-imidazo[4,5-c]quinolin-2-one] |
